Reference: patent publication US8778871B2 (Takeda Pharmaceutical Company Limited, priority 2004, dated 2014)
Non-standard residues stand in square brackets, D forms with d. Residues, ends and D or L forms follow the SMILES beside them. *: point of attachment. X9 = CC(C)C[C@H](NCCN*)C(=O)N[C@@H](CCCNC(=N)N)C(=O)N[C@@H](Cc1ccccc1)C(N)=O; NαAmidinoTrp = N=C(N)N[C@@H](Cc1c[nH]c2ccccc12)C(=O)*; Butyryl(4-indol-3-yl) = O=C(CCCc1c[nH]c2ccccc12)*; Arg(Me) = CNC(=N)NCCC[C@H](N)C(=O)O; d3Pal = N[C@H](Cc1cccnc1)C(=O)O; azaGly = NNC(=O)O

biological target: T1, hOT7T175 (Homo sapiens, UniProt Q969F8); assay: Intracellular Ca ion level-increasing activity using FLIPR (180 seconds; specific activity to Metastin (1-54)); format: cell-based; conditions: hOT7T175/CHO, change in intracellular calcium ion level for 180 seconds, Tables 21-23
T1 construct: expressed in transfected cells
T1 sequence (Q969F8 whole entry L364H): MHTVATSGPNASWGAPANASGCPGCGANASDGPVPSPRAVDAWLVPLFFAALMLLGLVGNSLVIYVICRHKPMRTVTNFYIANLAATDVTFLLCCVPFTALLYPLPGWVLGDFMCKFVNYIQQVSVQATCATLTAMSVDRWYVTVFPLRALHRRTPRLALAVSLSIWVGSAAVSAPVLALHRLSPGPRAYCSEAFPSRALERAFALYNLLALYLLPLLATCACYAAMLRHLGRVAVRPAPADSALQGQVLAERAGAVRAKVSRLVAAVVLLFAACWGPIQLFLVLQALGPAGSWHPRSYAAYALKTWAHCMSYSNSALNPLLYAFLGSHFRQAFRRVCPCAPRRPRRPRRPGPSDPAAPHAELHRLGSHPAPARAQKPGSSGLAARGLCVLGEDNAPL
Method: In accordance with the method described in JPA 2000-312590, the intracellular Ca ion level-increasing activity was measured using FLIPR. […]
The intracellular Ca ion level-increasing activity of the synthetic peptide in hOT7T175/CHO was determined using FLIPR (Molecular Devices, Inc.).
hOT7T175/CHO was subcultured in DMEM supplemented with 10% dialyzed fetal bovine serum (hereinafter abbreviated as dFBS) and provided for the experiment (hereinafter abbreviated as 10% dFBS/DMEM). The hOT7T175/CHO was suspended in 10% dFBS-DMEM in 15×10^4 cells/ml. The suspension was inoculated on a 96-well plate for FLIPR (Black Plate Clear Bottom, Coster, Inc.) at 200 μl each (3.0×10^4 cells/200 μl), followed by incubation at 37° C. overnight in a 5% CO2 incubator. The cells thus incubated were used (hereinafter simply referred to as the cell plate). Then, 21 ml of HANKS/HBSS (9.8 g of HANKS', 0.35 g of sodium hydrogencarbonate, 20 ml of 1M HEPES; after adjusting the pH to 7.4 with 1N sodium hydroxide, the mixture was subjected to sterilization through a filter), 210 μl of […] Probenecid and 210 μl of fetal bovine serum (FBS) were mixed (HANKS/HBSS-Probenecid-FBS).
Furthermore, 2 vials of Fluo3-AM (50 μg/vial) were dissolved in 21 μL of dimethylsulfoxide and 21 μL of 20% Pluronic acid. The resulting solution was added to and mixed with 10 ml of HANKS/HBSS-Probenecid-FBS described above. After the culture medium was removed, the mixture was dispensed onto the cell plate in 100 μl each/well, followed by incubation at 37° C. for an hour in a 5% CO2 incubator (pigment loading). The peptide was dissolved in dimethylsulfoxide in 1×10^−3 M. The peptide solution was diluted with HANKS'/HBSS containing 2.5 mM Probenecid and 0.2% BSA. The dilution was transferred to a 96-well plate for FLIPR (V-Bottom plate, Coster, Inc.) (hereinafter referred to as a sample plate). After completion of the pigment loading onto the cell plate, the cell plate washed 4 times with wash buffer, which was obtained by adding 2.5 mM Probenecid to HANKS'/HBSS, using a plate washer to leave 100 μL of wash buffer after the washing. The cell plate and the sample plate were set in FLIPR and 0.05 ml of a sample from the sample plate was automatically transferred to the cell plate with the FLIPR device to promote the cell response. A change in intracellular calcium ion level for 180 seconds was measured with passage of time.

Row | Compound | intracellular Ca ion level-increasing activity [specific activity to Metastin (1-54)]
1 | 1-Oxo-isochroman-3-carbonyl-AzaGly-Leu-Arg(Me)-Trp-NH2 [Compound No. 408] | ⅓
2 | 2-(Indol-3-yl)ethylcarbamoyl-Phe-AzaGly-Leu-Arg(Me)-Phe-NH2 [Compound No. 364] | 1
3 | 2-Azetidinecarbonyl-Phe-AzaGly-Leu-Arg(Me)-Trp-NH2 [Compound No. 466] | ⅓
4 | 2-Hydroxyisobutyryl-Phe-AzaGly-Leu-Arg(Me)-Trp-NH2 [Compound No. 453] | 1
5 | 2-Methylnicotinoyl-Phe-AzaGly-Leu-Arg(Me)-Trp-NH2 [Compound No. 443] | ½
6 | 2-Pyridinecarbonyl-Phe-AzaGly-Leu-Arg(Me)-Trp-NH2 [Compound No. 435] | 10
7 | 3-(3-Indolyl)propionyl-Phe-Gly-Leu-Arg-Phe-NH2 [Compound No. 352] | ⅓
8 | 3-(3-Pyridyl)propionyl-Phe-AzaGly-Leu-Arg(Me)-Phe-NH2 [Compound No. 340] | ⅕
9 | 3-Phenylpropionyl-AzaGly-Leu-Arg(Me)-Phe-NH2 [Compound No. 362] | 1/10
10 | 3-Pyridinecarbonyl-Phe-AzaGly-Leu-Arg(Me)-Trp-NH2 [Compound No. 432] | 2
11 | 4-Pyridinecarbonyl-Phe-AzaGly-Leu-Arg(Me)-Nal(2)-NH2 [Compound No. 461] | ⅓
12 | 4-Pyridinecarbonyl-Phe-AzaGly-Leu-Arg(Me)-Phe-NH2 [Compound No. 471] | 1
13 | 4-Pyridinecarbonyl-Phe-AzaGly-Leu-Har-Trp-NH2 [Compound No. 478] | ⅓
14 | 4-Pyridinecarbonyl-Phe-AzaGly-Leu-Orn-Trp-NH2 [Compound No. 477] | ⅕
15 | 4-Pyridinecarbonyl-Phe-AzaGly-Val-Arg(Me)-Trp-NH2 [Compound No. 460] | ⅓
16 | 5-Methylnicotinoyl-Phe-AzaGly-Leu-Arg(Me)-Trp-NH2 [Compound No. 444] | ⅓
17 | 6-Hydroxynicotinoyl-Phe-AzaGly-Leu-Arg(Me)-Trp-NH2 [Compound No. 462] | 1
18 | CNC(=N)NCCC[C@H](NC(=O)[C@H](CC(C)C)NC(=O)NNC(=O)[C@H](Cc1ccccc1)NC(=O)[C@H](CO)NC(=O)[C@H](CC(N)=O)NC(=O)[C@H](Cc1ccccc1)NC(=O)[C@H](N)Cc1cccnc1)C(=O)N[C@@H](Cc1ccccc1)C(N)=O [Compound No. 256, D-Pya(3)-Phe-Asn-Ser-Phe-AzaGly-Leu-Arg(Me)-Phe-NH2] (H-[d3Pal]FNSF[azaGly]L[Arg(Me)]F-NH2) | 1
19 | CNC(=N)NCCC[C@H](NC(=O)[C@H](CC(C)C)NC(=O)NNC(=O)[C@H](Cc1ccccc1)NC(=O)[C@H](CO)NC(=O)[C@H](CC(N)=O)NC(=O)[C@H](Cc1ccccc1)NC(=O)[C@@H](CC(N)=O)NC(=O)[C@H](N)Cc1ccc(O)cc1)C(=O)N[C@@H](Cc1ccccc1)C(N)=O [Compound No. 257, D-Tyr-D-Asn-Phe-Asn-Ser-Phe-AzaGly-Leu-Arg(Me)-Phe-NH2] (H-[dY][dN]FNSF[azaGly]L[Arg(Me)]F-NH2) | 3
20 | CNC(=N)NCCC[C@H](NC(=O)[C@H](CC(C)C)NC(=O)NNC(=O)[C@H](Cc1ccccc1)NC(=O)[C@H](CO)NC(=O)[C@H](CC(N)=O)NC(=O)[C@H](Cc1c[nH]c2ccccc12)NC(=O)[C@H](CC(N)=O)NC(=O)[C@H](N)Cc1cccnc1)C(=O)N[C@@H](Cc1ccccc1)C(N)=O [Compound No. 258, D-Pya(3)-Asn-Trp-Asn-Ser-Phe-AzaGly-Leu-Arg(Me)-Phe-NH2] (H-[d3Pal]NWNSF[azaGly]L[Arg(Me)]F-NH2) | 2
21 | CNC(=N)NCCC[C@H](NC(=O)[C@H](CC(C)C)NC(=O)NNC(=O)[C@H](Cc1ccccc1)NC(=O)[C@H](CO)NC(=O)[C@H](CC(N)=O)NC(=O)[C@H](Cc1c[nH]c2ccccc12)NC(=O)[C@H](CC(N)=O)NC(=O)[C@@H](C)N)C(=O)N[C@@H](Cc1ccccc1)C(N)=O [Compound No. 259, D-Ala-Asn-Trp-Asn-Ser-Phe-AzaGly-Leu-Arg(Me)-Phe-NH2] (H-[dA]NWNSF[azaGly]L[Arg(Me)]F-NH2) | 1
22 | CC(C)C[C@H](NCCNC(=O)[C@H](Cc1ccccc1)NC(=O)[C@H](CO)NC(=O)[C@H](CC(N)=O)NC(=O)[C@H](Cc1c[nH]c2ccccc12)NC(=O)[C@H](CC(N)=O)NC(=O)[C@@H](N)Cc1ccc(O)cc1)C(=O)N[C@@H](CCCNC(=N)N)C(=O)N[C@@H](Cc1ccccc1)C(N)=O [Compound No. 261, Tyr-Asn-Trp-Asn-Ser-Phe-GlyΨ(CH2NH)Leu-Arg-Phe-NH2] (H-YNWNSF-X9) | 1
23 | CNC(=N)NCCC[C@H](NC(=O)[C@H](CC(C)C)NC(=O)NNC(=O)[C@H](Cc1ccccc1)NC(=O)[C@H](CO)NC(=O)[C@H](CC(N)=O)NC(=O)CCCc1c[nH]c2ccccc12)C(=O)N[C@@H](Cc1ccccc1)C(N)=O [Compound No. 267, 4-(3-Indolyl)butyryl-Asn-Ser-Phe-AzaGly-Leu-Arg(Me)-Phe-NH2] ({Butyryl(4-indol-3-yl)}-NSF[azaGly]L[Arg(Me)]F-NH2) | 2
24 | CNC(=N)NCCC[C@H](NC(=O)[C@H](CC(C)C)NC(=O)NNC(=O)[C@H](Cc1ccccc1)NC(=O)[C@H](Cc1ccccc1)NC(=O)[C@H](CO)NC(=O)[C@H](CC(N)=O)NC(=O)[C@H](Cc1ccccc1)NC(=O)[C@H](CC(N)=O)NC(=O)[C@H](N)Cc1ccc(O)cc1)C(=O)N[C@@H](Cc1ccccc1)C(N)=O [Compound No. 270, D-Tyr-Asn-Phe-Asn-Ser-Phe-Phe-AzaGly-Leu-Arg(Me)-Phe-NH2] (H-[dY]NFNSFF[azaGly]L[Arg(Me)]F-NH2) | 1
25 | CNC(=N)NCCC[C@H](NC(=O)[C@H](CC(C)C)NC(=O)NNC(=O)[C@H](Cc1ccccc1)NC(=O)[C@H](CO)NC(=O)[C@H](CC(N)=O)NC(=O)[C@@H](N)Cc1c[nH]c2ccccc12)C(=O)N[C@@H](Cc1ccccc1)C(N)=O [Compound No. 271, Trp-Asn-Ser-Phe-AzaGly-Leu-Arg(Me)-Phe-NH2] (H-WNSF[azaGly]L[Arg(Me)]F-NH2) | 1
26 | CNC(=N)NCCC[C@H](NC(=O)[C@H](CC(C)C)NC(=O)NNC(=O)[C@H](Cc1ccccc1)NC(=O)[C@H](CO)NC(=O)[C@H](CC(N)=O)NC(=O)[C@H](Cc1c[nH]c2ccccc12)NC(C)=O)C(=O)N[C@@H](Cc1ccccc1)C(N)=O [Compound No. 272, Acetyl-Trp-Asn-Ser-Phe-AzaGly-Leu-Arg(Me)-Phe-NH2] (Ac-WNSF[azaGly]L[Arg(Me)]F-NH2) | 2
27 | CNC(=N)NCCC[C@H](NC(=O)[C@H](CC(C)C)NC(=O)NNC(=O)[C@H](Cc1ccccc1)NC(=O)[C@H](CO)NC(=O)[C@H](CC(N)=O)NC(=O)[C@H](Cc1c[nH]c2ccccc12)NC(=N)N)C(=O)N[C@@H](Cc1ccccc1)C(N)=O [Compound No. 273, Amidino-Trp-Asn-Ser-Phe-AzaGly-Leu-Arg(Me)-Phe-NH2] (NαAmidinoTrp-NSF[azaGly]L[Arg(Me)]F-NH2) | 5
